{"source": "PubChem BioAssay AID1645866", "about": "(Buhrlage Lab, Dana-Farber Cancer Institute and Novartis …, 2021)", "note": "Calls of active or inactive are those of the source.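 The calls were made as follows: active = in confirmatory dose-response testing, peak deubiquitinase inhibition of 30% or more; inactive = the rest.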", "data": [{"target": "Ubiquitin carboxyl-terminal hydrolase 28 (Homo sapiens) (UniProt Q96RU2)", "sequence (Q96RU2 whole entry, looked up)": "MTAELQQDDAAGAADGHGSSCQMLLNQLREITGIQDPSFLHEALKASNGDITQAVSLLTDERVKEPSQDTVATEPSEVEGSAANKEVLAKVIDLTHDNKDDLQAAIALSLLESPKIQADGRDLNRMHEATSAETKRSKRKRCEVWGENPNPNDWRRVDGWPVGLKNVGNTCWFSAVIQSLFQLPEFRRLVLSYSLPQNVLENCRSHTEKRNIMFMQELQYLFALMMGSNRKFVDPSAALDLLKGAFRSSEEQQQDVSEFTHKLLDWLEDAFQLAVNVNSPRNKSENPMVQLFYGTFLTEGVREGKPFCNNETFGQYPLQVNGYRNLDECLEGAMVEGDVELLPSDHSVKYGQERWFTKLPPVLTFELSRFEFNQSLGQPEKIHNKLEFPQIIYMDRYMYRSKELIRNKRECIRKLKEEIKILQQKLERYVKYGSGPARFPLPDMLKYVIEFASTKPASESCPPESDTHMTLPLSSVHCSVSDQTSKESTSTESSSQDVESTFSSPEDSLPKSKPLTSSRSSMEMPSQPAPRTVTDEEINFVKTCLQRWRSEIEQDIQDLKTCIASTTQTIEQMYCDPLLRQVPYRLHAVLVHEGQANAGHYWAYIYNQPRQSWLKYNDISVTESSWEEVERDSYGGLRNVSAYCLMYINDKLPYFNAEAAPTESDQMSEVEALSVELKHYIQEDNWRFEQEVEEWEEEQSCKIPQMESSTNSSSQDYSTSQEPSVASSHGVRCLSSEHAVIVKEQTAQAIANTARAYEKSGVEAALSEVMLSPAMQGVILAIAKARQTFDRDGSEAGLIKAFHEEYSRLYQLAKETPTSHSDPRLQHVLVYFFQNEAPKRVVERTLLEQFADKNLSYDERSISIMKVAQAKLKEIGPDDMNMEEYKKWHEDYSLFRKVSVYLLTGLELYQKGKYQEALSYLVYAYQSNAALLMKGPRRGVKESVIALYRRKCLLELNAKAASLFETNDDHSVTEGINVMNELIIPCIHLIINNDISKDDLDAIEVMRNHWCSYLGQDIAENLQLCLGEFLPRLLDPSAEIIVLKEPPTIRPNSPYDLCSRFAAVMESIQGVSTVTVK", "assay": "Concentration-response biochemical assay confirming initial hits as inhibitors of ubiquitin-specific protease 28 (AID 1645866)", "conditions": "purified USP28, ubiquitin-rhodamine fluorescence, 30 min", "values": [{"smiles": "COc1ccc(C2C(C(=O)C(C)(C)C)N3c4ccccc4C=CC3C23C(=O)c2ccccc2C3=O)c(OC)c1", "note": "(stereo unspecified)", "IC50": "> 50 µM (inactive)"}, {"smiles": "FC(F)(F)c1ccccc1CCN1CCc2nc3ccc(Cl)cc3cc2C1", "IC50": "> 50 µM (inactive)"}, {"smiles": "N#Cc1ccccc1COC(=O)c1ccc2ccccc2n1", "IC50": "6.94 µM"}, {"smiles": "COc1ccc(Cn2c(=O)[nH]c3cc(C(=O)NCCCN4CCN(c5cccc(Cl)c5)CC4)ccc3c2=O)cc1", "IC50": "3.43 µM"}, {"smiles": "Cc1ccc(NC(=O)CNC(=O)c2cc3ccccc3o2)cc1", "IC50": "21.2 µM"}, {"smiles": "O=C(Cn1c(=O)n(Cc2ccc3c(c2)OCO3)c(=O)c2ncccc21)c1ccc(Cl)cc1", "IC50": "30.4 µM"}, {"smiles": "NS(=O)(=O)c1ccc(NC(=O)Cn2cnc3cc([N+](=O)[O-])ccc3c2=O)cc1", "IC50": "19.9 µM"}, {"smiles": "Cn1ccnc1CN1C[C@H]2CCN(c3ncccn3)C[C@H]2C1", "IC50": "> 50 µM (inactive)"}, {"smiles": "CC1=C[C@@H](C)CC[C@H]2O[C@@H](C3=C(O)C(=O)C(C)=C4O[C@](O)(C=C43)[C@@H](C)C[C@H](C)C1)[C@H](C)[C@@H](O)[C@H]2C", "IC50": "19.5 µM"}, {"smiles": "Cc1ccccc1C(=O)NCCn1cc(SCC(=O)Nc2ccc3c(c2)OCCO3)c2ccccc21", "IC50": "35.1 µM"}, {"smiles": "O=[N+]([O-])c1cccc(CSc2nnc(/C=C/c3ccccc3)o2)c1", "IC50": "> 50 µM (inactive)"}, {"smiles": "O=C(CCn1c(=O)c2ccccc2n(Cc2cc(=O)n3ccccc3n2)c1=O)NCCc1ccc(Cl)cc1", "IC50": "19.4 µM"}, {"smiles": "COc1cccc(N2C(=O)N(CC(=O)NCc3ccc(Cl)cc3)c3ccccc3S2(=O)=O)c1", "IC50": "19.1 µM"}, {"smiles": "O=C(CCCc1c[nH]c2ccccc12)Nc1ccc2c(c1)OCCO2", "IC50": "4.42 µM"}, {"smiles": "CC(=O)c1ccc(NC(=O)c2ccc(N3CCCCS3(=O)=O)cc2Cl)cc1", "IC50": "26.6 µM"}, {"smiles": "Fc1cccc(-n2cc(-c3noc(-c4ccccn4)n3)nn2)c1", "IC50": "23.7 µM"}, {"smiles": "COc1cnc(-c2ccccn2)nc1Sc1ccc(C)cc1", "IC50": "> 50 µM (inactive)"}, {"smiles": "CCOc1ccc(S(=O)(=O)Nc2ccc[nH]c2=O)cc1", "IC50": "> 50 µM (inactive)"}, {"smiles": "O=C(Cn1cnc2ccccc21)Nc1ccc2c(c1)CCC2", "IC50": "28.7 µM"}, {"smiles": "O=C(c1nnn(Cc2ccc(Cl)cc2)c1-n1cccc1)N1CCCC1", "IC50": "5.97 µM"}, {"smiles": "Cc1ccc2[nH]cc(S(=O)(=O)c3ccc(C)c(F)c3)c(=O)c2c1", "IC50": "19.9 µM"}, {"smiles": "CCN(CC)C(=O)c1sc(NC(=O)/C=C/c2c(F)cccc2Cl)c(C#N)c1C", "IC50": "2.93 µM"}, {"smiles": "CN1CCN(c2ncnc3c2oc2ccc(Cl)cc23)CC1", "IC50": "> 50 µM (inactive)"}, {"smiles": "CSc1ncccc1C(=O)OCc1ccc(Br)cc1", "IC50": "1.98 µM"}, {"smiles": "CC(=O)C1=C(O)[C@]2(O)C(=O)c3c(c(C)c4ccc(C)c(O)c4c3O)C[C@H]2[C@@H](N)C1=O", "IC50": "1.49 µM"}, {"smiles": "N[C@@H](Cc1ccccc1)C(=O)N1CCC2(CC1)CN(C(=O)c1ccc(Cl)cc1)CCO2", "IC50": "> 50 µM (inactive)"}, {"smiles": "CC1OC2CC(O)C1(O)C1=C2C(O)=C(C(N)=O)C(=N)C1=O", "note": "(stereo unspecified)", "IC50": "12.3 µM"}, {"smiles": "Cc1oc2ccc(NS(=O)(=O)c3ccc(F)cc3)cc2c1C(=O)OCc1ccccc1", "IC50": "9.05 µM"}, {"smiles": "Cc1ccc(-n2c(=O)[nH]c3c(C(N)=O)nc(-c4cccnc4)nc32)cc1", "IC50": "6.87 µM"}, {"smiles": "CC1=C(Cn2c3cccc(=O)c-3nc3ccccc32)CCC(C)(C)C1", "IC50": "2.02 µM"}, {"smiles": "CCn1cnc2ccc(C(=O)NC3CC3)cc2c1=O", "IC50": "20.2 µM"}, {"smiles": "Cn1ccc2c(cc(C(=O)NCCC3=CCCCC3)n2C)c1=O", "IC50": "21.1 µM"}, {"smiles": "COc1ccccc1CNC(=O)CCCn1c(=O)c2ccccc2n(CC(=O)N2CCN(c3ccccc3)CC2)c1=O", "IC50": "28.8 µM"}, {"smiles": "O=C(Nc1ccccc1)c1cn2c3c(cccc3c1=O)CC2", "IC50": "31.9 µM"}, {"smiles": "CC(=O)c1ccc(NC(=O)c2nc3ccccc3nc2N2CCOCC2)cc1", "IC50": "> 50 µM (inactive)"}, {"smiles": "O=C(CSc1nc2ccncc2[nH]1)Nc1ccc(Br)cc1F", "IC50": "26.5 µM"}, {"smiles": "O=C(OCc1ccc(F)cc1)c1ccc2ccccc2n1", "IC50": "2.55 µM"}, {"smiles": "N#Cc1ccccc1OCc1csc(-c2ccccc2)n1", "IC50": "5.97 µM"}, {"smiles": "COc1c(C)c(C(O)C(C)O)c2[nH]c3ccc(CC=C(C)C)cc3c2c1O", "note": "(stereo unspecified)", "IC50": "17.4 µM"}, {"smiles": "CCOC(=O)c1cc2c(ccn2C)n1Cc1cccc2ccccc12", "IC50": "> 50 µM (inactive)"}, {"smiles": "Cc1ccc(C)c(-n2c(N)c(C(=O)NCCc3ccccc3)c3nc4ccccc4nc32)c1", "IC50": "> 50 µM (inactive)"}]}]}
